Assay results from ChEMBL document CHEMBL1140952 (J Med Chem, 2009).

Columns and labels:
[1] = Antiproliferative activity against Met-dependent human GTL16 cells after 72 hrs by MTS assay; type: functional, cell-based; conditions: GTL 16, 72 h
[2] = biological target: Hepatocyte growth factor receptor (Homo sapiens, UniProt P08581); assay: Inhibition of MET
Hepatocyte growth factor receptor, sequence (P08581 whole entry): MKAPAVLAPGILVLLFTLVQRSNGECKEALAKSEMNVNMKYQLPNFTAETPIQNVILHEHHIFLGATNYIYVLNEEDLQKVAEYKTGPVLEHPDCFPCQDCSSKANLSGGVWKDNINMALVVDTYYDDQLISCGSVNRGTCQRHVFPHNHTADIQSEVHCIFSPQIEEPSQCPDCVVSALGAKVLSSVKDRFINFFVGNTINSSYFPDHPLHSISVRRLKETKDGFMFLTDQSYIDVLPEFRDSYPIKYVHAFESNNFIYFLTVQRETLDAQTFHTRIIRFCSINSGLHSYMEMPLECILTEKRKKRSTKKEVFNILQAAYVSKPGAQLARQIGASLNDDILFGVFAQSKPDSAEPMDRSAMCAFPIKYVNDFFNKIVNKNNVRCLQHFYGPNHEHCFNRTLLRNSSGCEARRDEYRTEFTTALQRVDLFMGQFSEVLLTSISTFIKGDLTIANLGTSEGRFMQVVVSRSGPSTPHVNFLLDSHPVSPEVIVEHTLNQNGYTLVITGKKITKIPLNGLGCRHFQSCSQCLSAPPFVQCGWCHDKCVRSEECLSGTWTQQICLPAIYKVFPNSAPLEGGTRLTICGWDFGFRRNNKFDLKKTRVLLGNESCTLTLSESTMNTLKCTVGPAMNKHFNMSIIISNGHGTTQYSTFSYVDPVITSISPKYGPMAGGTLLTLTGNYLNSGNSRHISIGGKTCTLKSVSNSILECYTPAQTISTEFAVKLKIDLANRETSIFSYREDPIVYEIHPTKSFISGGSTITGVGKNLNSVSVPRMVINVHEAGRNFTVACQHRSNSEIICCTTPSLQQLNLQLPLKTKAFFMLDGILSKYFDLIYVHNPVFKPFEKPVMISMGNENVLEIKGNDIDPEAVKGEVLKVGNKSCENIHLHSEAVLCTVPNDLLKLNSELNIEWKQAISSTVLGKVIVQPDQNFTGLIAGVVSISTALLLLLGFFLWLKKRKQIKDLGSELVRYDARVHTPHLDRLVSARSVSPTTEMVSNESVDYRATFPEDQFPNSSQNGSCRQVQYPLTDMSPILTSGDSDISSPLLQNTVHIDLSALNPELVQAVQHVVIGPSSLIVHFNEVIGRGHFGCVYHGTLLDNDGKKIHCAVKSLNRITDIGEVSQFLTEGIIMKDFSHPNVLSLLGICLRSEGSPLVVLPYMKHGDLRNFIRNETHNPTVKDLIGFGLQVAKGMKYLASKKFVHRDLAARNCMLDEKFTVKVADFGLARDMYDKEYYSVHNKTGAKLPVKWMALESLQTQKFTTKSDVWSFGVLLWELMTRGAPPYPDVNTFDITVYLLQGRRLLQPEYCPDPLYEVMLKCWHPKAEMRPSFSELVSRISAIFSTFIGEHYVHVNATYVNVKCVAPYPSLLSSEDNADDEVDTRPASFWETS

Q: Which results are given for NCC#Cc1c(Oc2ccc(NC(=O)c3cccn(-c4ccc(F)cc4)c3=O)cc2F)ccnc1N?
A: IC50 [1]: 210 nM; IC50 [2]: 3.8 nM

Q: Which IC50 [1] does the source give for Nc1cc(Oc2ccc(NC(=O)c3cccn(-c4ccc(F)cc4)c3=O)cc2F)ccn1 here?
A: 170 nM

Q: What about the IC50 [2] of the same molecule?
A: 4.5 nM

Q: With O=C(Nc1ccc(Oc2ccnc3[nH]ccc23)c(F)c1)c1cccn(-c2ccc(F)cc2)c1=O as the molecule, how does the IC50 [1] read?
A: 60 nM
